The numbers were not newly measured in patent US10588873B2, “Topical antifungal compositions” (Exodos Life Sciences LP, priority 2015, dated 2020), which cites them from elsewhere.

Each structure is given as a SMILES string.

In general, pKa refers to the negative logarithm of the acid dissociation constant.

For this data set the following is noted: only or first printed pKa.

Take `CCCCCC(=O)O` [caproic (hexanoic) acid]: the pKa is 4.88. Turning to `CC(=O)CCC(=O)O` [levulinic acid], the pKa is on record as 4.6.
